Tested on: VSV-specific neutralizing antibodies
Format: in vivo, mice
Details: for VSV antigen-specific neutralizing antibody titers: free bisphosphonate 2 mg footpad days -3 and -1, live VSV Indiana 10^4 pfu, serum day 8, vs control mice (FIG. 6); for antigen-specific antibody titers / increase in adaptive immune responses following immunization: mouse, in vivo

| Compound | VSV antigen-specific neutralizing antibody titers | antigen-specific antibody titers | increase in adaptive immune responses following immunization |
| --- | --- | --- | --- |
| NCCCC(O)(P(=O)(O)O)P(=O)(O)O [alendronate] | increased |  |  |
| CC(O)(P(=O)(O)O)P(=O)(O)O [etidronate] | increased |  |  |
| NCCC(O)(P(=O)(O)O)P(=O)(O)O [pamidronate] | increased |  |  |
| carrageenan |  | did not increase | failed to induce an increase |
| dextran sulfate |  | did not increase | failed to induce an increase |

From patent publication US10188733B2 (priority 2010, dated 2019)
